T1: peptidylglycine α-amidating monooxygenase (PAM) (Rattus norvegicus, UniProt P14925)
T1 construct: purchased Unigene Laboratories, Inc. (New Jersey, USA)
T1 sequence (P14925 36-871 isoform P14925-2 limits assumed): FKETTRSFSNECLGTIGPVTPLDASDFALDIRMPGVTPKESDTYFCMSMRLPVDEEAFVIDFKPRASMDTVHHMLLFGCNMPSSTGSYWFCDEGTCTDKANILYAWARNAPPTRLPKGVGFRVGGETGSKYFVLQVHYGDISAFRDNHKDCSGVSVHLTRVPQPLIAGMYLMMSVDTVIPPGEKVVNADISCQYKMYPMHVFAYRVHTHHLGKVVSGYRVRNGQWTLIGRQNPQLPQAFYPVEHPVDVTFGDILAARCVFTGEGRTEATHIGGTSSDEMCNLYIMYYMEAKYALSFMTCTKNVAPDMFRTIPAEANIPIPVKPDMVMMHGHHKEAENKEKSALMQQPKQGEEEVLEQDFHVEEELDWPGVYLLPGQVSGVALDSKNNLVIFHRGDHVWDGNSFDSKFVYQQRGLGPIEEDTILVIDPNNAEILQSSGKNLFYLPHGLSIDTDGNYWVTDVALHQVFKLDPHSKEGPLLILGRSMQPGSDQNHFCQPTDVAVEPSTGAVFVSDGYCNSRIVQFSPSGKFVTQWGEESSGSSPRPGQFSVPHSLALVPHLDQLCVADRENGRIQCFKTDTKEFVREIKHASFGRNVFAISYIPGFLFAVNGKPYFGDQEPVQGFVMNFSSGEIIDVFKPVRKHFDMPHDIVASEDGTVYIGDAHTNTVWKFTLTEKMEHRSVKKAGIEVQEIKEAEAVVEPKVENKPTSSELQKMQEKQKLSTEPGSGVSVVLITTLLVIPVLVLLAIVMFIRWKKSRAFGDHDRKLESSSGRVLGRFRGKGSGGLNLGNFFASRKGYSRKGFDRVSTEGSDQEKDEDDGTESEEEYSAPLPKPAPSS

B1: peptidylglycine α-amidating monooxygenase (PAM) (Rattus norvegicus) (protein)
chain: T1 sequence (P14925 36-871 isoform P14925-2 limits assumed)
notes: purchased Unigene Laboratories, Inc. (New Jersey, USA)

Legend:
cytochrome P450 (CYP450) [1] = experiment: CYP450 substrate study, porcine liver microsomes and 9000 g supernatant; assay type: in vitro ADME; conditions: pork liver enzyme sources, pH 6.0 and pH 7.4, NADH or NADPH, 60 or 180 minutes
Method: The pork livers were procured from a local butcher (Bordesholm) and the organs were transported directly after slaughter in an ice-cooled 20 mM phosphate buffer (1 mM Na2 EDTA, pH 7.4). For further processing, the liver lobes were first perfused with 50 mM phosphate buffer (1 mM Na2 EDTA, pH 7.4) and washed. The tissue was cut into pieces and run through a commercially available meat grinder. The suspension was diluted an equal volume of phosphate buffer and homogenized using a flow homogenizer. The microsomes and 9000 g supernatant were further obtained by differential ultracentrifugation. For storage, the resulting preparations were aliquotted and frozen at −80° C.
A typical incubation bath of 500 μl (total volume) contained 0.3 mg protein (pork or human liver enzyme source), 0.1 mM (or 1 mM) test compound in 100 mM phosphate buffer (pH 6.0 or pH 7.4) and 1 mM NADH (or NADPH). The incubation was started after a 5-minute pre-incubation of the enzyme and test compound in buffer, adding NADH (or NADPH), and the product was shaken for 60 minutes or 180 minutes at 37° C. in the shaking water batch. The batches were stopped by adding the same volume of acetonitrile, shaken using the vortexer, and frozen at −80° C.
To analyze the samples, they were thawed, shaken 5 minutes using the vortexer, and the protein was separated by means of 5-minute centrifugation at 10000 rpm. […]

[2] = biological target: T1, peptidylglycine α-amidating monooxygenase (PAM); experiment: PAM assay with colorimetric determination of glyoxylate formation; assay type: biochemical; conditions: for formation of glyoxylate as the cleavage product of the PAM catalysis: colorimetric assay, substrate 0.1 mM or 1 mM, pH 6.0 and pH 7.4, 37° C.
Method: (§1) The recombinant peptidylglycine α-amidating monooxygenase (PAM, rat, EC 1.14.17.3) that was used was provided by Unigene Laboratories, Inc. (New jersey, USA) (specific activity=5.8 10^6 U/mg protein); bovine liver catalase (EC 1.11.1.6), specific activity=12600 U/mg solid (Aldrich).
(§2) A typical incubation batch of 300 μl (total volume) contained 25000 U/ml peptidylglycine α-amidating monooxygenase (PAM, company: Unigene Laboratories), 250 U/ml catalase, 1 μM copper(II) (employed as acetate/monohydrate), 2 mM sodium ascorbate, 5 mM potassium iodide and the respective substrate in 0.1 mM or 1 mM concentration, in buffers having different pH values. The buffer system used was 30 mM MES for the incubation at pH 6.0 and 50 mM HEPES for the incubation at pH 7.4. The pH value was adjusted in each case with diluted sodium hydroxide. The incubation was carried out at 37° C. in the shaking water bath for 60 minutes, 100 μl was withdrawn, and the reaction was stopped with 50 μl 10% TFA(aq)/acetonitrile (2:3). The remaining batch was incubated for another 180 minutes at 37° C. and stopped with 100 μl 10% TFA(aq)/acetonitrile (2:3).
(§3) The stopped samples were shaken for 5 minutes (vortexer) and frozen at −80° C. To analyze the samples, they were thawed, shaken for 5 minutes, and the precipitated protein was centrifuged at 10000 rpm. The supernatant was used for the colorimetric glyoxylate determination and/or HPLC measurement.
200 μl of the incubation batch that was freed of protein was mixed with 20 μl of a phenylhydrazine solution (20 mg in 2 ml aqua bidest.) and shaken for 5 minutes in the shaking water bath at 37° C. […] The batch was allowed to rest for 15 minutes at room temperature and 200 μl was withdrawn for the measurement using a Plate Reader (Cary 50 UV-Vis photometer, 520 nm).
For a 5-point calibration, glyoxalic acid in concentrations of 2, 5, 10, 50 and 100 μM in a 2:1 mixture of assay buffer (pH 6.0):10% TFA(aq)/acetonitrile (2:3) was measured as described above. […]

[3] = biological target: T1, peptidylglycine α-amidating monooxygenase (PAM); experiment: PAM substrate kinetics (KM and Vmax) by HPLC; assay type: biochemical; conditions: for Vmax value: pH 6.0, 30 minutes incubation, n=2
Method: as §1
as §2, with “The incubation was carried out at 37° C. in the shaking water bath for 60 minutes, 100 μl was withdrawn, and the reaction was stopped with 50 μl 10% TFA(aq)/acetonitrile (2:3).” left out
as §3
For the KM and Vmax determination, 100 μl batches were treated at pH 6.0 under the aforementioned conditions, however with the difference that the incubation time was 30 minutes.
HPLC Analysis for Separating O-carboxymethyl benzamidoxime (1) and benzamidoxime (2)
(§4) For the calibration, benzamidoxime was dissolved in eight concentrations of 0.1-500 μM, dissolved in assay buffer (30 mM MES, 1 μM copper(II) acetate, 2 mM sodium ascorbate, 5 mM potassium iodide, pH 6.0), and measured using the aforementioned HPLC method. […]
(§5) For the calibration, N-hydroxy-N′,N″-diphenyl guanidine (4) was dissolved in eight concentrations of 0.1-500 μM, dissolved in assay buffer (30 mM MES, […], 2 mM sodium ascorbate, 5 mM potassium iodide, pH 6.0), and measured using the aforementioned HPLC method.

cytochrome P450 (CYP450) [4] = experiment: CYP450 substrate study, human liver microsomes and 9000 g supernatant; assay type: in vitro ADME; conditions: human liver enzyme sources, pH 6.0 and pH 7.4, NADH or NADPH, 60 or 180 minutes
Method: To obtain human microsomes, human liver tissue from cancer patients of the surgical department of the University Clinic of Christian-Albrecht University was obtained who had to undergo hemihepatectomy.
The liver tissue pieces were flash-frozen in a saccharose-containing phosphate buffer (10 mM K2HPO4, 10 mM KH2PO4, 250 mM saccharose, 1 mM Na2 EDTA, pH 7.4, 4° C.). As soon as a sufficient quantity of organ parts (>3) was available, the corresponding pieces were thawed and pooled so as to compensate for differences due to interindividual variations. The tissue pieces were cut into smaller parts at 4° C., washed several times with buffer solution (without EDTA), and processed into a suspension using a homogenizer. The microsomes and 9000 g supernatant were further obtained from this suspension by differential ultracentrifugation. For storage, the resulting preparations were aliquotted and frozen at −80° C.
A typical incubation bath of 500 μl (total volume) contained 0.3 mg protein (pork or human liver enzyme source), 0.1 mM (or 1 mM) test compound in 100 mM phosphate buffer (pH 6.0 or pH 7.4) and 1 mM NADH (or NADPH). The incubation was started after a 5-minute pre-incubation of the enzyme and test compound in buffer, adding NADH (or NADPH), and the product was shaken for 60 minutes or 180 minutes at 37° C. in the shaking water batch. […]

[5] = substrate: N/C(=N\OCC(=O)O)c1ccccc1; experiment: PAM substrate kinetics (KM and Vmax) by HPLC; assay type: biochemical, rat; conditions: other: pH 6.0, 30 minutes incubation, two independent experiments (n=2), 37.0 °C
Method: as §1
(§6) A typical incubation batch of 300 μl (total volume) contained 25000 U/ml peptidylglycine α-amidating monooxygenase (PAM, company: Unigene Laboratories), 250 U/ml catalase, 1 μM copper(II) (employed as acetate/monohydrate), 2 mM sodium ascorbate, 5 mM potassium iodide and the respective substrate in 0.1 mM or 1 mM concentration, in buffers having different pH values. The buffer system used was 30 mM MES for the incubation at pH 6.0 and 50 mM HEPES for the incubation at pH 7.4. The pH value was adjusted in each case with diluted sodium hydroxide. […]
as §4, §5

[6] = substrate: O=C(O)CON=C(Nc1ccccc1)Nc1ccccc1; experiment: PAM substrate kinetics (KM and Vmax) by HPLC; assay type: biochemical, rat; conditions: other: pH 6.0, 30 minutes incubation, two independent experiments (n=2), 37.0 °C
Method: as §1, §6, §4, §5

Row | Molecule | detection of O-dealkylated metabolite and its N-reduction product by HPLC (cytochrome P450 (CYP450) [1]) | formation of glyoxylate as the cleavage product of the PAM catalysis [2] | conversion at the pH optimum of PAM (pH 6.0) in comparison with incubation at pH 7.4 ([2]; colorimetric glyoxylate determination, FIG. 1) | Vmax value [3] | detection of O-dealkylated metabolite and its N-reduction product by HPLC (cytochrome P450 (CYP450) [4]) | conversion rate in comparison with the amidoxime prodrug 1 ([3]; comparison of Vmax) | Km [5] | Km [6]
1 | N/C(=N\OCC(=O)O)c1ccccc1 [compound 1, O-carboxymethyl benzamidoxime] | neither benzamidoxime possible prodrug of benzamidine) nor benzamidine were detected | verified in an concentration-dependent manner | considerably higher conversions | 393±40 nmol min^−1 mg^−1 PAM | neither benzamidoxime possible prodrug of benzamidine) nor benzamidine were detected |  |  | 
2 | O=C(O)CON=C(Nc1ccccc1)Nc1ccccc1 [compound 3, N-carboxymethoxy-N′,N″-diphenyl guanidine] |  | comparable to those of the amidoxime model compound 1 |  | 373 ± 53 nmol min⁻¹ mg⁻¹ PAM |  | comparable |  | 
3 | B1 |  |  |  |  |  |  | 307 ± 80 µM | 37 ± 5 µM
